# Results taken from PubChem BioAssay (NCI).
#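 Five concentrations, 48 hours, 96-well plates. TGI marks complete inhibition of growth.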
# Columns and labels:
# Assay in all cases: DTP human tumour cell line panel, 48 h
# [1] = test system: SR leukemia
# [2] = test system: COLO 205 colon
# [3] = test system: NCI-H460 lung
# [4] = test system: SNB-75 CNS
# [5] = test system: UO-31 renal
# [6] = test system: CAKI-1 renal
# [7] = test system: MDA-MB-435
# [8] = test system: OVCAR-8 ovarian
# [9] = test system: SK-MEL-2 melanoma
# [10] = test system: MDA-MB-231 breast
# [11] = test system: KM12 colon
# [12] = test system: HOP-62 NSCLC
# [13] = test system: UACC-257 melanoma
# [14] = test system: MALME-3M melanoma
# [15] = test system: RXF 393 renal
# [16] = test system: MOLT-4 leukemia
# [17] = test system: 786-0 renal
# [18] = test system: OVCAR-5 ovarian
# [19] = test system: A549 NSCLC
# [20] = test system: NCI-H522 lung
# [21] = test system: LOX IMVI melanoma
# [22] = test system: SK-MEL-5 melanoma
# [23] = test system: MCF7 breast
# [24] = test system: HT29 colon
# [25] = test system: U251 CNS
# [26] = test system: ACHN renal
# [27] = test system: HOP-92 NSCLC
# [28] = test system: UACC-62 melanoma
# [29] = test system: HCC-2998 colon
# [30] = test system: M14 melanoma
# [31] = test system: HCT-116 colon
# [32] = test system: EKVX NSCLC
# [33] = test system: NCI-H226 lung
# [34] = test system: TK-10 renal
# [35] = test system: A498 renal
# [36] = test system: T-47D breast
# [37] = test system: SK-OV-3 ovarian
# [38] = test system: MDA-N
# [39] = test system: NCI-H23 lung
# [40] = test system: HS 578T breast
# [41] = test system: OVCAR-3 ovarian
# [42] = test system: SNB-19 CNS
# [43] = test system: SF-539 CNS
# [44] = test system: OVCAR-4 ovarian
# [45] = test system: SN12C renal
# [46] = test system: RPMI-8226 leukemia
# [47] = test system: HL-60(TB) leukemia
# [48] = test system: SF-268 CNS
# [49] = test system: DU-145 prostate
# [50] = test system: SK-MEL-28 melanoma
# [51] = test system: SF-295 CNS
# [52] = test system: BT-549 breast
# [53] = test system: SW-620 colon
# [54] = test system: PC-3 prostate
# [55] = test system: HCT-15 colon
# [56] = test system: NCI/ADR-RES ovarian
# [57] = test system: K-562 leukemia
# [58] = test system: IGROV1 ovarian
# [59] = test system: CCRF-CEM leukemia
smiles,measurement,setting,value
O=C(NCCc1ccccc1)c1cc(/C=C/c2cc(O)ccc2O)ccc1O,TGI,[1],8.58 µM
same,TGI,[2],17.6 µM
same,TGI,[3],24.6 µM
same,TGI,[4],13.7 µM
same,TGI,[5],2.86 µM
same,TGI,[6],13.2 µM
same,TGI,[7],25.8 µM
same,TGI,[8],16.3 µM
same,TGI,[9],11.8 µM
same,TGI,[10],12.9 µM
same,TGI,[11],24.6 µM
same,TGI,[12],11.9 µM
same,TGI,[13],8.57 µM
same,TGI,[14],5.07 µM
same,TGI,[15],2.93 µM
same,TGI,[16],7.5 µM
same,TGI,[17],6.18 µM
same,TGI,[18],25.3 µM
same,TGI,[19],> 41.1 µM
same,TGI,[20],4.32 µM
same,TGI,[21],17.5 µM
same,TGI,[22],7.32 µM
same,TGI,[23],9.42 µM
same,TGI,[24],> 50 µM
same,TGI,[25],5.28 µM
same,TGI,[26],5.59 µM
same,TGI,[27],4.35 µM
same,TGI,[28],5.03 µM
same,TGI,[29],21.7 µM
same,TGI,[30],15.9 µM
same,TGI,[31],4.19 µM
same,TGI,[32],8.24 µM
same,TGI,[33],27.8 µM
same,TGI,[34],7.16 µM
same,TGI,[35],13.6 µM
same,TGI,[36],3.86 µM
same,TGI,[37],26.4 µM
same,TGI,[38],9.81 µM
same,TGI,[39],17.7 µM
same,TGI,[40],> 40.4 µM
same,TGI,[41],8.11 µM
same,TGI,[42],19.6 µM
same,TGI,[43],5.94 µM
same,TGI,[44],3.76 µM
same,TGI,[45],19 µM
same,TGI,[46],7.21 µM
same,TGI,[47],9.65 µM
same,TGI,[48],10.2 µM
same,TGI,[49],28.1 µM
same,TGI,[50],10.4 µM
same,TGI,[51],35.2 µM
same,TGI,[52],3.7 µM
same,TGI,[53],> 45.5 µM
same,TGI,[54],11.4 µM
same,TGI,[55],7.42 µM
same,TGI,[56],> 34.2 µM
same,TGI,[57],7.49 µM
same,TGI,[58],11.3 µM
same,TGI,[59],> 40.3 µM
Cc1c2ccccc2c(C2C3C(=O)N(c4cccc5ccccc45)C(=O)C3ON2Cc2ccc(CC(N)=O)cc2)c2ccccc12 (stereo not given),TGI,[1],37.6 µM
same,TGI,[2],14.6 µM
same,TGI,[3],48.6 µM
same,TGI,[4],43.5 µM
same,TGI,[5],> 50 µM
same,TGI,[6],> 50 µM
same,TGI,[7],> 50 µM
same,TGI,[8],> 50 µM
same,TGI,[9],31.3 µM
same,TGI,[10],> 50 µM
same,TGI,[11],> 50 µM
same,TGI,[12],> 50 µM
same,TGI,[13],37 µM
same,TGI,[14],> 50 µM
same,TGI,[15],40 µM
same,TGI,[16],25.7 µM
same,TGI,[17],> 50 µM
same,TGI,[18],> 50 µM
same,TGI,[19],> 50 µM
same,TGI,[20],> 50 µM
same,TGI,[21],> 50 µM
same,TGI,[22],> 50 µM
same,TGI,[23],> 50 µM
same,TGI,[24],27 µM
same,TGI,[25],> 50 µM
same,TGI,[26],> 50 µM
same,TGI,[27],> 50 µM
same,TGI,[28],47.3 µM
same,TGI,[30],> 50 µM
same,TGI,[31],> 50 µM
same,TGI,[32],48.9 µM
same,TGI,[33],46.5 µM
same,TGI,[34],> 50 µM
same,TGI,[35],> 50 µM
same,TGI,[36],> 50 µM
same,TGI,[37],> 50 µM
same,TGI,[38],35.6 µM
same,TGI,[39],> 50 µM
same,TGI,[40],> 50 µM
same,TGI,[41],> 50 µM
same,TGI,[42],> 50 µM
same,TGI,[43],> 50 µM
same,TGI,[44],> 50 µM
same,TGI,[45],> 50 µM
same,TGI,[47],> 50 µM
same,TGI,[48],> 50 µM
same,TGI,[49],> 50 µM
same,TGI,[50],> 50 µM
same,TGI,[51],> 50 µM
same,TGI,[52],> 50 µM
same,TGI,[53],> 50 µM
same,TGI,[54],> 50 µM
same,TGI,[55],> 50 µM
same,TGI,[56],> 50 µM
same,TGI,[57],> 50 µM
same,TGI,[58],> 50 µM
same,TGI,[59],> 50 µM
O=C(c1ccccc1)C(Nc1ccc2ccccc2c1)c1ccccc1 (stereo not given),TGI,[1],> 71.8 µM
same,TGI,[2],33.7 µM
same,TGI,[3],> 100 µM
same,TGI,[4],> 71.9 µM
same,TGI,[5],> 100 µM
same,TGI,[6],> 100 µM
same,TGI,[7],> 48 µM
same,TGI,[8],> 100 µM
same,TGI,[9],41.8 µM
same,TGI,[10],> 100 µM
same,TGI,[11],> 81.5 µM
same,TGI,[12],> 100 µM
same,TGI,[13],48.2 µM
same,TGI,[14],> 94.8 µM
same,TGI,[15],> 100 µM
same,TGI,[16],> 75.6 µM
same,TGI,[17],> 100 µM
same,TGI,[18],> 100 µM
same,TGI,[19],> 100 µM
same,TGI,[20],> 67.3 µM
same,TGI,[21],> 100 µM
same,TGI,[22],36 µM
same,TGI,[23],> 100 µM
same,TGI,[24],> 100 µM
same,TGI,[25],> 100 µM
same,TGI,[26],> 100 µM
same,TGI,[27],> 100 µM
same,TGI,[28],> 100 µM
same,TGI,[29],56.6 µM
same,TGI,[30],> 100 µM
same,TGI,[31],> 100 µM
same,TGI,[32],> 100 µM
same,TGI,[33],> 100 µM
same,TGI,[34],> 100 µM
same,TGI,[35],69.6 µM
same,TGI,[36],> 100 µM
same,TGI,[37],> 100 µM
same,TGI,[38],> 100 µM
same,TGI,[39],> 100 µM
same,TGI,[40],> 100 µM
same,TGI,[41],78.2 µM
same,TGI,[42],> 100 µM
same,TGI,[43],> 100 µM
same,TGI,[44],> 100 µM
same,TGI,[45],> 100 µM
same,TGI,[46],33.7 µM
same,TGI,[47],36.4 µM
same,TGI,[48],> 100 µM
same,TGI,[49],> 100 µM
same,TGI,[50],> 100 µM
same,TGI,[51],> 100 µM
same,TGI,[52],> 100 µM
same,TGI,[53],> 100 µM
same,TGI,[54],98.7 µM
same,TGI,[55],> 100 µM
same,TGI,[56],> 100 µM
same,TGI,[57],> 87.6 µM
same,TGI,[58],> 100 µM
same,TGI,[59],51.2 µM
